# Test results as given in patent publication US20230157952A1, “METHOD FOR IMPROVING THE STABILITY OF A PHARMACEUTICAL COMPOSITION COMPRISING A HIGH PENETRATION DRUG, AND THE PHARMACEUTICAL COMPOSITION OBTAINED THEREFROM” (Techfields Inc., priority 2020, published 2023).
# Test: Effect of temperature (and pH) on the stability of the solution (purity)
# Type: physicochemical
# Details: 7% solution in water
compound,measurement,setting,value
CCN(CC)CCOC(=O)CCc1nc(-c2ccccc2)c(-c2ccccc2)o1.Cl,Purity(%) at day 0,"pH 1.0, day 0",98.2 ± 0.3%
same,Purity(%) at day 21 (5° C.),"pH 1.0, day 21, 5° C.",90.1 ± 0.3%
same,Purity(%) at day 21 (25° C.),"pH 1.0, day 21, 25° C.",59.9 ± 0.3%
same,Purity(%) at day 21 (40° C.),"pH 1.0, day 21, 40° C.",7.9 ± 0.3%
same,Purity (%) at day 21 (60° C.),"pH 1.0, day 21, 60° C.",0%
same,Purity(%) at day 0,"pH 2.0, day 0",98.4 ± 0.3%
same,Purity(%) at day 21 (5° C.),"pH 2.0, day 21, 5° C.",93.0 ± 0.2%
same,Purity(%) at day 21 (25° C.),"pH 2.0, day 21, 25° C.",74.8 ± 0.2%
same,Purity(%) at day 21 (40° C.),"pH 2.0, day 21, 40° C.",17.6 ± 0.2%
same,Purity (%) at day 21 (60° C.),"pH 2.0, day 21, 60° C.",0%
same,Purity(%) at day 0,"pH 3.0, day 0",98.6 ± 0.1%
same,Purity(%) at day 21 (5° C.),"pH 3.0, day 21, 5° C.",96.9 ± 0.2%
same,Purity(%) at day 21 (25° C.),"pH 3.0, day 21, 25° C.",88.9 ± 0.2%
same,Purity(%) at day 21 (40° C.),"pH 3.0, day 21, 40° C.",36.4 ± 0.2%
same,Purity (%) at day 21 (60° C.),"pH 3.0, day 21, 60° C.",0%
same,Purity(%) at day 0,"pH 3.7, day 0",98.7 ± 0.2%
same,Purity(%) at day 21 (5° C.),"pH 3.7, day 21, 5° C.",97.8 ± 0.1%
same,Purity(%) at day 21 (25° C.),"pH 3.7, day 21, 25° C.",94.5 ± 0.2%
same,Purity(%) at day 21 (40° C.),"pH 3.7, day 21, 40° C.",50.6 ± 0.2%
same,Purity (%) at day 21 (60° C.),"pH 3.7, day 21, 60° C.",7.3 ± 0.3%
same,Purity(%) at day 0,"pH 4.0, day 0",98.8 ± 0.1%
same,Purity(%) at day 21 (5° C.),"pH 4.0, day 21, 5° C.",97.9 ± 0.1%
same,Purity(%) at day 21 (25° C.),"pH 4.0, day 21, 25° C.",95.1 ± 0.1%
same,Purity(%) at day 21 (40° C.),"pH 4.0, day 21, 40° C.",53.2 ± 0.2%
same,Purity (%) at day 21 (60° C.),"pH 4.0, day 21, 60° C.",20.2 ± 0.2%
same,Purity(%) at day 0,"pH 4.3, day 0",98.8 ± 0.2%
same,Purity(%) at day 21 (5° C.),"pH 4.3, day 21, 5° C.",97.9 ± 0.2%
same,Purity(%) at day 21 (25° C.),"pH 4.3, day 21, 25° C.",95.2 ± 0.2%
same,Purity(%) at day 21 (40° C.),"pH 4.3, day 21, 40° C.",54.8 ± 0.1%
same,Purity (%) at day 21 (60° C.),"pH 4.3, day 21, 60° C.",21.8 ± 0.3%
same,Purity(%) at day 0,"pH 4.6, day 0",98.7 ± 0.1%
same,Purity(%) at day 21 (5° C.),"pH 4.6, day 21, 5° C.",97.8 ± 0.2%
same,Purity(%) at day 21 (25° C.),"pH 4.6, day 21, 25° C.",95.0 ± 0.1%
same,Purity(%) at day 21 (40° C.),"pH 4.6, day 21, 40° C.",54.7 ± 0.2%
same,Purity (%) at day 21 (60° C.),"pH 4.6, day 21, 60° C.",15.5 ± 0.3%
same,Purity(%) at day 0,"pH 5.0, day 0",98.6 ± 0.3%
same,Purity(%) at day 21 (5° C.),"pH 5.0, day 21, 5° C.",96.3 ± 0.2%
same,Purity(%) at day 21 (25° C.),"pH 5.0, day 21, 25° C.",89.8 ± 0.1%
same,Purity(%) at day 21 (40° C.),"pH 5.0, day 21, 40° C.",30.1 ± 0.2%
same,Purity (%) at day 21 (60° C.),"pH 5.0, day 21, 60° C.",3.2 ± 0.2%
same,Purity(%) at day 0,"pH 6.0, day 0",98.4 ± 0.2%
same,Purity(%) at day 21 (5° C.),"pH 6.0, day 21, 5° C.",93.4 ± 0.2%
same,Purity(%) at day 21 (25° C.),"pH 6.0, day 21, 25° C.",73.9 ± 0.2%
same,Purity(%) at day 21 (40° C.),"pH 6.0, day 21, 40° C.",16.5 ± 0.2%
same,Purity (%) at day 21 (60° C.),"pH 6.0, day 21, 60° C.",0%
same,Purity(%) at day 0,"pH 7.0, day 0",98.2 ± 0.3%
same,Purity(%) at day 21 (5° C.),"pH 7.0, day 21, 5° C.",89.2 ± 0.3%
same,Purity(%) at day 21 (25° C.),"pH 7.0, day 21, 25° C.",59.7 ± 0.2%
same,Purity(%) at day 21 (40° C.),"pH 7.0, day 21, 40° C.",7.1 ± 0.3%
same,Purity (%) at day 21 (60° C.),"pH 7.0, day 21, 60° C.",0%
same,Purity(%) at day 0,"pH 8.0, day 0",98.0 ± 0.3%
same,Purity(%) at day 21 (5° C.),"pH 8.0, day 21, 5° C.",77.1 ± 0.3%
same,Purity(%) at day 21 (25° C.),"pH 8.0, day 21, 25° C.",40.8 ± 0.3%
same,Purity(%) at day 21 (40° C.),"pH 8.0, day 21, 40° C.",0%
same,Purity (%) at day 21 (60° C.),"pH 8.0, day 21, 60° C.",0%
CCN(CC)CCOC(=O)c1cc(-c2ccc(F)cc2F)ccc1OC(C)=O.Cl,Purity(%) at day 0,"pH 1.0, day 0",99.1%
same,Purity(%) at day 14 (5° C.),"pH 1.0, day 14, 5° C.",90.2%
same,Purity(%) at day 14 (25° C.),"pH 1.0, day 14, 25° C.",61.2%
same,Purity(%) at day 14 (40° C.),"pH 1.0, day 14, 40° C.",0%
same,Purity (%) at day 14 (60° C.),"pH 1.0, day 14, 60° C.",0%
same,Purity(%) at day 0,"pH 2.0, day 0",99.1%
same,Purity(%) at day 14 (5° C.),"pH 2.0, day 14, 5° C.",95.8%
same,Purity(%) at day 14 (25° C.),"pH 2.0, day 14, 25° C.",82.7%
same,Purity(%) at day 14 (40° C.),"pH 2.0, day 14, 40° C.",0%
same,Purity (%) at day 14 (60° C.),"pH 2.0, day 14, 60° C.",0%
same,Purity(%) at day 0,"pH 3.0, day 0",99.1%
same,Purity(%) at day 14 (5° C.),"pH 3.0, day 14, 5° C.",97.5%
same,Purity(%) at day 14 (25° C.),"pH 3.0, day 14, 25° C.",87.7%
same,Purity(%) at day 14 (40° C.),"pH 3.0, day 14, 40° C.",2.3%
same,Purity (%) at day 14 (60° C.),"pH 3.0, day 14, 60° C.",0%
same,Purity(%) at day 0,"pH 3.7, day 0",99.1%
same,Purity(%) at day 14 (5° C.),"pH 3.7, day 14, 5° C.",98.2%
same,Purity(%) at day 14 (25° C.),"pH 3.7, day 14, 25° C.",95.5%
same,Purity(%) at day 14 (40° C.),"pH 3.7, day 14, 40° C.",14.1%
same,Purity (%) at day 14 (60° C.),"pH 3.7, day 14, 60° C.",0%
same,Purity(%) at day 0,"pH 4.0, day 0",99.1%
same,Purity(%) at day 14 (5° C.),"pH 4.0, day 14, 5° C.",98.4%
same,Purity(%) at day 14 (25° C.),"pH 4.0, day 14, 25° C.",95.9%
same,Purity(%) at day 14 (40° C.),"pH 4.0, day 14, 40° C.",14.3%
same,Purity (%) at day 14 (60° C.),"pH 4.0, day 14, 60° C.",0%
same,Purity(%) at day 0,"pH 4.3, day 0",99.1%
same,Purity(%) at day 14 (5° C.),"pH 4.3, day 14, 5° C.",98.4%
same,Purity(%) at day 14 (25° C.),"pH 4.3, day 14, 25° C.",95.8%
same,Purity(%) at day 14 (40° C.),"pH 4.3, day 14, 40° C.",12.8%
same,Purity (%) at day 14 (60° C.),"pH 4.3, day 14, 60° C.",0%
same,Purity(%) at day 0,"pH 4.6, day 0",99.1%
same,Purity(%) at day 14 (5° C.),"pH 4.6, day 14, 5° C.",98.3%
same,Purity(%) at day 14 (25° C.),"pH 4.6, day 14, 25° C.",95.6%
same,Purity(%) at day 14 (40° C.),"pH 4.6, day 14, 40° C.",3.4%
same,Purity (%) at day 14 (60° C.),"pH 4.6, day 14, 60° C.",0%
same,Purity(%) at day 0,"pH 5.0, day 0",99.1%
same,Purity(%) at day 14 (5° C.),"pH 5.0, day 14, 5° C.",97.0%
same,Purity(%) at day 14 (25° C.),"pH 5.0, day 14, 25° C.",91.0%
same,Purity(%) at day 14 (40° C.),"pH 5.0, day 14, 40° C.",0.9%
same,Purity (%) at day 14 (60° C.),"pH 5.0, day 14, 60° C.",0%
same,Purity(%) at day 0,"pH 6.0, day 0",99.1%
same,Purity(%) at day 14 (5° C.),"pH 6.0, day 14, 5° C.",91.6%
same,Purity(%) at day 14 (25° C.),"pH 6.0, day 14, 25° C.",84.1%
same,Purity(%) at day 14 (40° C.),"pH 6.0, day 14, 40° C.",0%
same,Purity (%) at day 14 (60° C.),"pH 6.0, day 14, 60° C.",0%
same,Purity(%) at day 0,"pH 7.0, day 0",99.1%
same,Purity(%) at day 14 (5° C.),"pH 7.0, day 14, 5° C.",87.3%
same,Purity(%) at day 14 (25° C.),"pH 7.0, day 14, 25° C.",60.3%
same,Purity(%) at day 14 (40° C.),"pH 7.0, day 14, 40° C.",0%
same,Purity (%) at day 14 (60° C.),"pH 7.0, day 14, 60° C.",0%
same,Purity(%) at day 0,"pH 8.0, day 0",99.1%
same,Purity(%) at day 14 (5° C.),"pH 8.0, day 14, 5° C.",57.3%
same,Purity(%) at day 14 (25° C.),"pH 8.0, day 14, 25° C.",21.2%
same,Purity(%) at day 14 (40° C.),"pH 8.0, day 14, 40° C.",0%
same,Purity (%) at day 14 (60° C.),"pH 8.0, day 14, 60° C.",0%
